Test results published in ChEMBL document CHEMBL1145476, “Inhibitory activities of three classes of acyclic nucleoside phosphonates against murine polyomavirus and primate simian virus 40 strains” (Antimicrob Agents Chemother, 2007).

Legend:
Murine polyomavirus [1] = test: Antiviral activity against Murine polyomavirus LID1 ATCC VR-252 in mouse UC1B cells assessed as reduction of virus-induced cytopathogenicity; type: functional, cell-based; conditions: Alphapolyomavirus muris
[2] = Cytotoxicity against african green monkey BSC1 cells; type: cell-based, BSC-1; conditions: chlorocebus aethiops
[3] = Selectivity index, ratio of CC50 for mouse UC1B cells to EC50 of Murine polyomavirus 2PTA2; type: functional
[4] = Selectivity index, ratio of CC50 for african green monkey BSC1 cells ot EC50 for Simian virus 40 PML1 EK; type: functional, BSC-1
[5] = Selectivity index, ratio of CC50 for mouse UC1B cells to EC50 of Murine polyomavirus LID1; type: functional
Murine polyomavirus [6] = test: Antiviral activity against Murine polyomavirus PTA in mouse UC1B cells assessed as reduction of virus-induced cytopathogenicity; type: functional, cell-based; conditions: Alphapolyomavirus muris
Murine polyomavirus [7] = test: Antiviral activity against Murine polyomavirus 2PTA2 in mouse UC1B cells assessed as reduction of virus-induced cytopathogenicity; type: functional, cell-based; conditions: Alphapolyomavirus muris, 2PTA2, UC1B
[8] = Selectivity index, ratio of CC50 for mouse UC1B cells to EC50 of Murine polyomavirus MN/RDE Toronto; type: functional
Simian virus 40 [9] = test: Antiviral activity against Simian virus 40 PML2 DAR in african green monkey BSC1 cells assessed as reduction of virus-induced cytopathogenicity; type: functional, organism-based; conditions: Betapolyomavirus macacae, BSC-1
[10] = Cytotoxicity against mouse UC1B cells; type: cell-based
Simian virus 40 [11] = test: Antiviral activity against Simian virus 40 A2895 in african green monkey BSC1 cells assessed as reduction of virus-induced cytopathogenicity; type: functional, organism-based; conditions: Betapolyomavirus macacae, A2895, BSC-1
Murine polyomavirus [12] = test: Antiviral activity against Murine polyomavirus MN/RDE Toronto in mouse UC1B cells assessed as reduction of virus-induced cytopathogenicity; type: functional, cell-based; conditions: Alphapolyomavirus muris
[13] = Selectivity index, ratio of CC50 for african green monkey BSC1 cells ot EC50 for Simian virus 40 PML2 DAR; type: functional, BSC-1
[14] = Selectivity index, ratio of CC50 for african green monkey BSC1 cells ot EC50 for Simian virus 40 A2895; type: functional, BSC-1
[15] = Selectivity index, ratio of CC50 for mouse UC1B cells to EC50 of Murine polyomavirus PTA; type: functional
Simian virus 40 [16] = test: Antiviral activity against Simian virus 40 PML1 EK in african green monkey BSC1 cells assessed as reduction of virus-induced cytopathogenicity; type: functional, organism-based; conditions: Betapolyomavirus macacae, BSC-1
Murine polyomavirus [17] = test: Antiviral activity against Murine polyomavirus PTA in UC1B cells assessed as reduction of virus yield; type: functional; conditions: Alphapolyomavirus muris
Murine polyomavirus [18] = test: Antiviral activity against Murine polyomavirus LID1 in UC1B cells assessed as reduction of virus yield; type: functional; conditions: Alphapolyomavirus muris
Simian virus 40 [19] = test: Antiviral activity against Simian virus 40 A2895 in african green monkey BSC1 cells assessed as reduction of virus yield; type: functional; conditions: Betapolyomavirus macacae, A2895, BSC-1

EC50 (Murine polyomavirus [1]) | EC50 (Murine polyomavirus [6]) | EC50 (Murine polyomavirus [7]) | EC50 (Simian virus 40 [9]) | EC50 (Simian virus 40 [11]) | EC50 (Murine polyomavirus [12]) | EC50 (Simian virus 40 [16]) | Compound | CC50 [2] | Ratio CC50/EC50 [3] | Ratio CC50/EC50 [4] | Ratio CC50/EC50 [5] | Ratio CC50/EC50 [8] | CC50 [10] | Ratio CC50/EC50 [13] | Ratio CC50/EC50 [14] | Ratio CC50/EC50 [15] | EC99 (Murine polyomavirus [17]) | EC99 (Murine polyomavirus [18]) | EC99 (Simian virus 40 [19])
58.6 µM | 65.3 µM | 47.4 µM | 38.3 µM | 32.6 µM | 39 µM | 49.8 µM | Nc1ncnc2c1ncn2C[C@H]1COP(=O)(O)CO1 | 371 µM | 4 | 7.5 | 3.2 | 4.9 | 190 µM | 9.7 | 11.4 | 2.9 |  |  | 
13.9 µM | 14.9 µM | 11.6 µM | 7.3 µM | 13.9 µM | 9.9 µM | 6 µM | Nc1nccc2c1ncn2C[C@@H](CO)OCP(=O)(O)O | 43.7 µM | 4.2 | 7.3 | 3.5 | 4.9 | 49 µM | 6 | 3.1 | 3.3 |  |  | 
38.1 µM | 32 µM | 20.6 µM | 19.1 µM | 19.8 µM | 17.1 µM | 19.8 µM | Nc1ncn(C[C@H]2COP(=O)(O)CO2)c(=O)n1 | 323 µM | 6.8 | 16.3 | 3.7 | 8.1 | 139 µM | 16.9 | 16.3 | 4.3 |  |  | 
12.1 µM | 9.5 µM | 15.9 µM | 181 µM | 148 µM | 21.2 µM | 140 µM | Nc1cc(OCCOCP(=O)(O)O)nc(N)n1 | 72.8 µM | 2.7 | 0.5 | 3.6 | 2 | 43.2 µM | 0.4 | 0.5 | 4.5 |  |  | 
13.2 µM | 14.5 µM | 9.5 µM | 10.2 µM | 12.3 µM | 9.5 µM | 15.4 µM | Nc1ncnc2c1ncn2C[C@@H](CO)OCP(=O)(O)O | 89.3 µM | 2.6 | 5.8 | 1.8 | 2.6 | 24.3 µM | 8.8 | 7.3 | 1.7 |  |  | 
42 µM | 54.4 µM | 61.2 µM | 18.5 µM | 22.2 µM | 34.9 µM | 20.8 µM | Nc1ccn(C[C@H]2COP(=O)(O)CO2)c(=O)n1 [CYCLIC CIDOFOVIR] | ≥ 672 µM | 9.5 | >=32.3 | 13.8 | 16.7 | 582 µM | >=36.3 | >=30.3 | 10.7 |  |  | 
0.88 µM | 0.53 µM | 0.56 µM | 0.34 µM | 0.3 µM | 0.55 µM | 0.23 µM | CCCCCCCCCCCCCCCCOCCOP1(=O)CO[C@@H](Cn2cnc(N)nc2=O)CO1 (stereo not given in full) | 13.4 µM | 33.6 | 58.3 | 21.4 | 34.2 | 18.8 µM | 39.4 | 44.7 | 35.5 | 0.43 µM | 0.81 µM | 0.26 µM
16.1 µM | 13.9 µM | 13.9 µM | 16.1 µM | 16.1 µM | 9.6 µM | 14.6 µM | Nc1ncn(C[C@@H](CO)OCP(=O)(O)O)c(=O)n1 | 436 µM | 21.1 | 29.9 | 18.2 | 30.6 | 294 µM | 27.4 | 27.1 | 21.1 |  |  | 
9.1 µM | 8.2 µM | 6.3 µM | 47.1 µM | 49.3 µM | 7.2 µM | 33.6 µM | Nc1nc(N)c2ncn(C[C@@H](CO)OCP(=O)(O)O)c2n1 | 217 µM | 3.4 | 6.5 | 2.4 | 3 | 21.4 µM | 4.6 | 4.4 | 2.6 |  |  | 
8.2 µM | 10.9 µM | 13.9 µM | 112 µM | 72.8 µM | 11.2 µM | 73.1 µM | Nc1cc(OC[C@@H](CO)OCP(=O)(O)O)nc(N)n1 | 140 µM | 0.8 | 1.9 | 1.3 | 0.9 | 10.5 µM | 1.2 | 1.9 | 1 |  |  | 

Compound | EC50 (Murine polyomavirus [1]) | EC50 (Murine polyomavirus [6]) | EC50 (Murine polyomavirus [7]) | EC50 (Simian virus 40 [9]) | EC50 (Simian virus 40 [11]) | EC50 (Murine polyomavirus [12]) | EC50 (Simian virus 40 [16]) | CC50 [2] | Ratio CC50/EC50 [3] | Ratio CC50/EC50 [4] | Ratio CC50/EC50 [5] | Ratio CC50/EC50 [8] | CC50 [10] | Ratio CC50/EC50 [13] | Ratio CC50/EC50 [14] | Ratio CC50/EC50 [15] | EC99 (Murine polyomavirus [17]) | EC99 (Murine polyomavirus [18]) | EC99 (Simian virus 40 [19])
Nc1ccn(C[C@@H](CO)OCP(=O)(O)O)c(=O)n1.O.O [CIDOFOVIR] | 18.7 µM | 16.2 µM | 19 µM | 17.8 µM | 19 µM | 13 µM | 19.3 µM | 424 µM | 8.9 | 21.9 | 9 | 13 | 169 µM | 23.8 | 22.3 | 10.4 |  |  | 
Nc1ncnc2c1ncn2CCOCP(=O)(O)O [ADEFOVIR] | 9.9 µM | 11.3 µM | 12.8 µM | 126 µM | 158 µM | 9.5 µM | 168 µM | 210 µM | 1.9 | 1.3 | 2.4 | 2.5 | 24.2 µM | 1.7 | 1.3 | 2.1 |  |  | 
